From patent US20200113902A1, “COMPOSITIONS AND METHODS FOR TREATING CANCERS WITH COVALENT INHIBITORS OF CYCLIN-DEPENDENT KINASE 7 (CDK7)” (Syros Pharmaceuticals, Inc., priority 2017, published 2020)

Assays:
[1] = system: HCC70 cells; assay: Growth rate (GR) inhibition, Cell Titer Glo 2.0, HCC70; assay type: cell-based, human; conditions: concentrations greater than 100 nM, 72 hours
Experimental: To determine the effect of Compound 1 on the growth of TNBC cancer cells, four different human TNBC cell lines were used—HCC70, MDA-MB-468, MDA-MB-453 and CAL120. Cells from each cell line were plated separately at 50,000 cells/mL (100 uL per well) in a black-walled 96 well plate and allowed to adhere overnight. In parallel, cells were plated in a separate day 0 plate to measure the number of cells present upon compound addition. The next day, Compound 1 was added to the wells with an HP 300e compound dispenser in a 10-point serial dilution and cells incubated for 72 hours. On the same day Cell Titer Glo 2.0 reagent was added to the day 0 plate, and the luminescence measured with an Envision plate reader per manufacture protocol. After 72 hours Cell Titer Glo 2.0 reagent was added to the plates and the luminescence measured. GR curves were calculated as follows: […]
wherein x(c) is the Compound 1 treatment luminescence); x0 is the average Day 0 luminescence); and xctrl is the average DMSO treatment luminescence, and graphed using Graph Pad Prism. A GR value of 1 indicates no growth inhibition; GR values between 0 and 1 indicate partial growth inhibition; a GR value of 0 indicates cytostasis (no change from baseline); GR values less than 0 indicate cytotoxicity (cell number less than baseline); a GR value of −1 indicates complete cell loss.

[2] = system: BR5015 xenografts; assay: TNBC patient-derived xenograft BR5015, tumor volume; assay type: in vivo, mouse; conditions: 40 mg/kg or 30 mg/kg i.v. BIW
Experimental: (§1) Patient-derived xenograft (PDX) models from TNBC patients (BR5010, BR5013, BR5015, and BR5023) were established in NOD-SCID mice at Crown Bioscience (San Diego, USA). Cryo vials containing tumor cells were thawed and prepared for injection into mice. Cells were washed in PBS, counted, and resuspended in cold PBS at a concentration of 50,000-100,000 viable cells/100 ul. Cell suspensions were mixed with an equal volume of Cultrex ECM and kept on ice during transport to the vivarium. Cells were prepared for injections by withdrawing ECM-Cell mixture into a chilled slip-tip syringe fitted with a 26G 7/8 (0.5 mm×22 mm) needle. The filled syringes were kept on ice to avoid the solidification of ECM. Each mouse was inoculated subcutaneously in the right flank with 200 uL of the cell suspension. Tumor sizes were measured in two dimensions using a caliper, and the volumes were expressed in mm^3 using the formula: V=0.5 a×b^2, where a and b are the longest and shortest diameters of the tumor, respectively. Compound 1 treatment was started when the average tumor size reached 150-200 mm^3.
(§2) Compound 1 was formulated in w/v 20% Captisol (pH 4-6) and administered by i.v. twice weekly (BIW) at a final dose of 40 mg/kg or 30 mg/kg in a 10 ml/kg volume. Tumor volumes were measured twice weekly over the course of the study. […]

[3] = system: OV15612 xenograft; assay: Ovarian PDX OV15612, tumor volume; assay type: in vivo, mouse; conditions: OV15612 (FGFR1 super enhancer, CCNE1 high); 40 or 30 mg/kg i.v. BIW
Experimental: as §1, with “from ovarian carcinoma” for “from TNBC”, “patients (OV5387, OV14702, OV14972, OV15398, OV15576, OV15696, OV15612, OV15631)” for “patients (BR5010, BR5013, BR5015, and BR5023)”, “in mm3” for “in mm^3”, “V=0.5 a×b^2” for “V=0.5 a×b^2,”
as §2

[4] = system: homologous recombination deficiency / carboplatin sensitivity genes in OvCar3 cells; assay: Nanostring PanCancer Pathways mRNA, OvCar3; assay type: cell-based; conditions: 50 nM, 16 hours
Experimental: Ovarian Cell lines OvCar3, TOV21G, A2780 and COV318 were plated at 500,000 cells/well in a 6-well plate the day before treatment. The next day the cells were treated with vehicle or 50 nM Compound 1 for 0, 6, or 16 hours after which cells were harvested and total RNA collected using RNeasy mini kit (Qiagen). Changes in mRNA between samples were analyzed with Nanostring™ PanCancer Pathways Panels specifically analyzing genes related to homologous recombination deficiency and carboplatin sensitivity (ie. BRCA1, BRCA2, Rad51, ATM, ATR, MSH2, MSH6). Nanostring signal intensities were first normalized to housekeeping genes across all cell lines, and then normalized to the 0 hour timepoint within a cell line.

[5] = system: leukemic cells; conditions: leukemic vs non-malignant cells; previously shown; cited from earlier work

CN(C)C/C=C/C(=O)Nc1ccc(C(=O)N[C@@]2(C)CCC[C@@H](Nc3ncc(Cl)c(-c4c[nH]c5ccccc45)n3)C2)nc1 [Compound 1, N-((1S,3R)-3-(5-chloro-4-(1H-indol-3-yl)pyrimidin-2-ylamino)-1-methylcyclohexyl)-5-((E)-4-(dimethylamino)but-2-enamido)picolinamide]
Inhibition of growth (GR curve) [1]: almost complete inhibition of growth | Tumor growth vs untreated historical samples [2]: little inhibitory effect on tumor growth | Response to treatment (tumor growth) [3]: responded | mRNA of genes related to homologous recombination deficiency and carboplatin sensitivity, all genes except Rad51 (BRCA1, BRCA2, ATM, ATR, MSH2, MSH6) [4]: downregulated | Induction of apoptosis in vitro [5]: selectively induce apoptosis in leukemic cells relative to non-malignant cells
